pIC50: −log10 of the molar value. Values belong to the compound of their own block, whether it stands above or below them.
Assays:
[1] = target: T1, CXCR4 on the surface of SupT1 cells (Homo sapiens, UniProt P61073); test: Inhibition of binding of anti-CXCR4-PE antibody to CXCR4 on SupT1 cells (flow cytometry); settings: for % positive / Mean fluorescence intensity / Median fluorescence intensity: anti-CXCR4-PE
T1 construct: constitutively express CXCR4 on the cell surface; host or cells: SupT1 cells
Description: The assay assesses the ability of glycomimetic compounds to inhibit binding of an anti-CXCR4 antibody conjugated to phycoerythrin (“PE”), to CXCR4 on the surface of SupT1 cells. SupT1 cells are a T lymphoblast derived from a lymphoblastic leukemia and constitutively express CXCR4 on the cell surface. The cells are purchased from ATCC (ATCC number CRL-1942). Anti-human CXCR4-phycoerythrin monoclonal antibody (anti-CXCR4-PE) is purchased from R&D Systems (catalog number FAB170P, clone 12G5). The cells are grown in RPMI 1640 medium supplemented with 10% FBS. Approximately 2×10^6 cells are washed three times by centrifuging the cells at 400×g for 10 minutes and the cell pellet is resuspended in PBS plus 0.05% BSA. After the third centrifugation, the cell pellet is resuspended in PBS plus BSA to a concentration of 5×10^5 cells per ml. To block non-specific binding, human […] is added to the cells to a concentration of 1 μg per 10^5 cells. Next, 200 μl (1×10^5 cells) are added to 5 ml polypropylene round-bottom tubes (Falcon 2063 tubes). Compound #1 (Example 1) (lot 31-190) is added to the cells at final concentrations of 0.5, 5, 10, and 50 μM. To achieve a final concentration of 0.5 μM, 2.2 μl of 50 μM Compound #1 plus 19.8 μl of PBS/BSA are added to 200 μl of cells. To achieve a final concentration of 5 μM, 22 μl of 50 μM Compound #1 are added to 200 μl of cells. To achieve a final concentration of 10 μM, 4.4 μl of 500 μM Compound #1 plus 17.6 μl of PBS/BSA are added to 200 μl of cells. To achieve a final concentration of 50 μM, 22 μl of 500 μM Compound #1 are added to 200 μl of cells. Other aliquots of cells are treated with either 1 or 5 μM of the bicyclam CXCR4 antagonist AMD-3100 (Sigma Aldrich, catalog #A5602). To achieve a final concentration of 1 μM AMD-3100, 4.4 μl of 50 μM AMD-3100 plus 17.6 μl of PBS/BSA are added to 200 μl of cells and to achieve a final concentration of 5 μM, 22 μl of 50 μM AMD-3100 are added to 200 μl of cells. In addition, one tube of cells is treated with 1 μg/ml of SDF-1α (R&D Systems catalog #350-NS), the natural ligand of CXCR4. The tubes are placed at 4° C. for 15 minutes. Subsequently, each tube receives 10 μl of anti-CXCR4-PE, except one tube of cells receives 10 μl of mouse IgG 2A isotype control antibody. The tubes are incubated at 4° C. for 45 minutes. The cells are washed twice with PBS plus 0.05% BSA and the final cell pellet is resuspended in 100 μl of PBS/BSA. To fix the samples, 100 μl of 2% formaldehyde (Polysciences, Inc. ultrapure EM grade, catalog number 04018) are added to each tube. Flow cytometry is performed using a Cytomation MoFlo instrument.

E-selectin/Ig chimera = test: E-selectin competitive binding assay (sLe^a polyacrylamide conjugate); settings: FIGS. 4 and 5
Procedure: The inhibition assay to screen glycomimetic antagonists of E-selectin is a competitive binding assay, which allows the determination of IC50 values. Briefly, E-selectin/Ig chimera is immobilized by incubation at 37° C. in 96 well microtiter plates for 2 hours. To reduce nonspecific binding, bovine serum albumin is added to each well and incubated at room temperature for 2 hours. The plate is washed and serial dilutions of the test compounds are added to the wells in the presence of conjugates of biotinylated, sLe^a polyacrylamide with streptavidin/horseradishperoxidase and incubated for 2 hours at room temperature. To determine the amount of sLe^a bound to immobilized E-selectin after washing, the peroxidase substrate, 3,3′,5,5′ tetramethylbenzidin (TMB) is added. After 3 minutes, the enzyme reaction is stopped by the addition of H3PO4 and the absorbance of light at a wavelength of 450 nm is determined. The concentration of test compound required to inhibit binding by 50% is determined and reported as the IC50 value for each glycomimetic E-selectin antagonist. In addition to reporting the absolute IC50 value as measured above, relative IC50 values are determined by a ratio of the IC50 measured for the test compound to that of an internal control (reference) stated for each assay.

T1 sequence (P61073 whole entry): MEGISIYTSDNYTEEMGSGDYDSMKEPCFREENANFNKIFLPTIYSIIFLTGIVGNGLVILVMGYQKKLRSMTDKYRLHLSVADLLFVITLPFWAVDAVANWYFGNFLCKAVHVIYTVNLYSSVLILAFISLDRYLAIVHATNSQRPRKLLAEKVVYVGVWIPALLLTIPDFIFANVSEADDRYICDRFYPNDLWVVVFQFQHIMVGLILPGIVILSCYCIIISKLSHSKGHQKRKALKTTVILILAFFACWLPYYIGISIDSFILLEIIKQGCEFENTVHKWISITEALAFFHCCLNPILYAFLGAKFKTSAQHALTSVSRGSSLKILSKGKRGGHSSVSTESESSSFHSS

- % positive ([1]; 1 μM inhibitor): 57.57%
- Mean fluorescence intensity ([1]; 1 μM inhibitor): 15.60
- Median fluorescence intensity ([1]; 1 μM inhibitor): 7.77
- % positive ([1]; 5 μM inhibitor): 12.42%
- Mean fluorescence intensity ([1]; 5 μM inhibitor): 9.98
- Median fluorescence intensity ([1]; 5 μM inhibitor): 3.92
Compound: c1cc(CN2CCCNCCNCCCNCC2)ccc1CN1CCCNCCNCCCNCC1 [AMD-3100, reference compound]

- % positive ([1]; 0.5 μM inhibitor): 98.69%
- Mean fluorescence intensity ([1]; 0.5 μM inhibitor): 68.49
- Median fluorescence intensity ([1]; 0.5 μM inhibitor): 54.25
- % positive ([1]; 5 μM inhibitor): 81.48%
- Mean fluorescence intensity ([1]; 5 μM inhibitor): 22.25
- Median fluorescence intensity ([1]; 5 μM inhibitor): 13.34
- % positive ([1]; 10 μM inhibitor): 42.06%
- Mean fluorescence intensity ([1]; 10 μM inhibitor): 14.08
- Median fluorescence intensity ([1]; 10 μM inhibitor): 6.04
- % positive ([1]; 50 μM inhibitor): 12.80%
- Mean fluorescence intensity ([1]; 50 μM inhibitor): 11.08
- Median fluorescence intensity ([1]; 50 μM inhibitor): 3.92
- pIC50 ([1]; anti-CXCR4-PE clone 12G5, 4° C.): 5.08
- E-selectin antagonist activity (in words) (E-selectin/Ig chimera): potent E-selectin antagonist
Compound: CC1CC(C(=O)NCCNCc2ccc(CN3CCCNCCNCCCNCC3)cc2)CC(OC2OC(CO)C(O)C(O[C@@H](CC3CCCCC3)C(=O)O)C2OC(=O)c2ccccc2)C1OC1OC(C)C(O)C(O)C1O (stereo partly shown) [Compound #1]
- Inhibition of binding of anti-CXCR4-PE antibody to CXCR4 (in words) [1]: inhibits binding of anti-CXCR4-PE to SupT1 cells in a dose-dependent manner

- Inhibition of binding of anti-CXCR4-PE antibody to CXCR4 (in words) [1]: efficiently inhibits binding
- % positive ([1]; 1 μg/ml inhibitor): 12.37%
- Mean fluorescence intensity ([1]; 1 μg/ml inhibitor): 10.25
- Median fluorescence intensity ([1]; 1 μg/ml inhibitor): 4.07
Compound: SDF-1α

Reference: patent US8410066B2, “Heterobifunctional inhibitors of E-selectins and CXCR4 chemokine receptors” (GlycoMimetics, Inc., priority 2009, dated 2013)
